Assay results reported in US20110230493A1, “1-OXA-8-Azaspiro [4,5] Decabe-8-Carboxamide Compounds as FAAH Inhibitors” (Pfizer Inc., priority 2008, published 2011).

Assays:
rat FAAH = target: T1, rat FAAH (Rattus norvegicus, UniProt P97612); assay: FAAH assay, rat FAAH enzyme inactivation (kinact/Ki); format: biochemical; conditions: pH 7.4, in vitro, oleamide 50 μM, 30° C., read-out: rFAAH kinact/Ki
T1 construct: made in house; host or cells: E. coli
T1 sequence (P97612 1-579): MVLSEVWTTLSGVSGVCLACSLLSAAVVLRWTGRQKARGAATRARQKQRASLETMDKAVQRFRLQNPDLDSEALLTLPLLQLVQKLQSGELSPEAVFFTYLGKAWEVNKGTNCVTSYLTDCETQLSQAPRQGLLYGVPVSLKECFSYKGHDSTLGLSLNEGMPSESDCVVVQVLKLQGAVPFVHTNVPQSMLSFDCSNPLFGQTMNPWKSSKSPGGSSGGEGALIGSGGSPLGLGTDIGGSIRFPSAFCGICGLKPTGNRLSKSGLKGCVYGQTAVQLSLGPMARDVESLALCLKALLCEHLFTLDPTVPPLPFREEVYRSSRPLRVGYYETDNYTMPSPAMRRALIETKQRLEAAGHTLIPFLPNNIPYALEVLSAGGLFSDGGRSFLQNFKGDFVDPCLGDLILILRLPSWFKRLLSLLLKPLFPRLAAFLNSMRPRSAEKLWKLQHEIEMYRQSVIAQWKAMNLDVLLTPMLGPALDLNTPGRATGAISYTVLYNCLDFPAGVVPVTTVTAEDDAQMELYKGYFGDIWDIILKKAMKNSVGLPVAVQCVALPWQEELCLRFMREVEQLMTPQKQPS
Outline: (§1)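 Oleamide hydrolysis by 1-4 nM purified E. coli-expressed FAAH (substrate 50 μM = Km) coupled to GDH/NADH, pH 7.4 phosphate, 7.5% DMSO and EtOH, 30° C; A340 followed 90 min. kobs from mono-exponential fits; kinact/Ki from kobs-versus-concentration slope, multiplied by two.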

Male Sprague-Dawley Rats = assay: In vivo Complete Freund's Adjuvant (CFA) efficacy assay, inhibition of allodynia; parameters: species or system rat; key: (+) indicates the test compound was determined to be efficacious at 3 mpk, oral dosing; (−) indicates the test compound was determined to not be efficacious at 3 mpk, oral dosing; conditions: 3 mpk, oral dosing; PWT four hours postdose; p < 0.05 vs vehicle group
Outline: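 Adult male Sprague-Dawley rats weighing 200 g-250 g received an intra-plantar injection of 150 uL Complete Freund's Adjuvant into the left hindpaw to induce inflammation. On day 4 after injection, baseline paw withdrawal threshold was measured with Von Frey hairs using the Dixon Up and Down method. Threshold was measured again at four hours postdose. Treatment groups were compared by ANOVA with Dunnett's two-tailed test.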

human FAAH = target: T2, human FAAH (Homo sapiens, UniProt O00519); assay: FAAH assay, human FAAH enzyme inactivation (kinact/Ki); format: biochemical; conditions: pH 7.4, in vitro, oleamide 50 μM, 30° C., read-out: hFAAH kinact/Ki
T2 construct: made in house; host or cells: E. coli
T2 sequence (O00519 1-579): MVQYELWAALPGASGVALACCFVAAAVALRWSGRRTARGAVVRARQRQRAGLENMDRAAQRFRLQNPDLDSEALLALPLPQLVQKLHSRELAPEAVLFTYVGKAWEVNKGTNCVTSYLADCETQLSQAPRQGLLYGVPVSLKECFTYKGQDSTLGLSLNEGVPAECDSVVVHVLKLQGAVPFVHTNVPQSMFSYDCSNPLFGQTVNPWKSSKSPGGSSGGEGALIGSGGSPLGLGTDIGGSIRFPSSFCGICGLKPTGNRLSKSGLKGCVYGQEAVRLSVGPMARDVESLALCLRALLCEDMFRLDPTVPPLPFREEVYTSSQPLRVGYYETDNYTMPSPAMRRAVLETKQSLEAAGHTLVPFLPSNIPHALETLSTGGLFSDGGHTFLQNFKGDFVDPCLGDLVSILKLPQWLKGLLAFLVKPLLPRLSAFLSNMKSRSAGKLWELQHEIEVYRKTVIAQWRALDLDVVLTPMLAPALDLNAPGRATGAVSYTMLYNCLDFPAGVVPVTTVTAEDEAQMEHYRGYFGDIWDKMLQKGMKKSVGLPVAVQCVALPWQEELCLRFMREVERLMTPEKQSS
Outline: as §1

Row | kinact/KI (rat FAAH) [M⁻¹ s⁻¹] | kinact/KI (human FAAH) [M⁻¹ s⁻¹] | SMILES | CFA Efficacy (Male Sprague-Dawley Rats)
1 | 9110 | 7470 | Cc1noc(NC(=O)N2CCC3(CC2)C[C@@H](c2ccc(OCc4ccc(Cl)cc4)cc2)CO3)c1C [Example 50, (3S)-3-{4-[(4-chlorobenzyl)oxy]phenyl}-N-(3,4-dimethylisoxazol-5-yl)-1-oxa-8-azaspiro[4.5]decane-8-carboxamide] | (−)
2 | 17300 | 16700 | Cc1noc(NC(=O)N2CCC3(CC2)C[C@H](c2ccc(OCc4ccc(F)c(F)c4)cc2)CO3)c1C [Example 51, (3R)-3-{4-[(3,4-difluorobenzyl)oxy]phenyl}-N-(3,4-dimethylisoxazol-5-yl)-1-oxa-8-azaspiro[4.5]decane-8-carboxamide] | (+)
3 | 6170 | 10100 | Cc1noc(NC(=O)N2CCC3(CC2)C[C@@H](c2ccc(OCc4ccc(F)c(F)c4)cc2)CO3)c1C [Example 52, (3S)-3-{4-[(3,4-difluorobenzyl)oxy]phenyl}-N-(3,4-dimethylisoxazol-5-yl)-1-oxa-8-azaspiro[4.5]decane-8-carboxamide] | (+)
4 | 2110 | 1610 | Cc1noc(NC(=O)N2CCC3(CC2)C[C@@H](c2cccc(-c4ccc(F)c(F)c4)c2)CO3)c1C [Example 57, (3S)-3-(3′,4′-difluorobiphenyl-3-yl)-N-(3,4-dimethylisoxazol-5-yl)-1-oxa-8-azaspiro[4.5]decane-8-carboxamide] | (+)
5 | 879 | 3130 | Cc1noc(NC(=O)N2CCC3(CC2)C[C@H](c2cccc(-c4ccc(F)cc4)c2)CO3)c1C [Example 59, (3R)—N-(3,4-dimethylisoxazol-5-yl)-3-(4′-fluorobiphenyl-3-yl)-1-oxa-8-azaspiro[4.5]decane-8-carboxamide] | (+)
6 | 2750 | 2110 | Cc1noc(NC(=O)N2CCC3(CC2)C[C@@H](c2cccc(-c4ccc(F)cc4)c2)CO3)c1C [Example 60, (3S)—N-(3,4-dimethylisoxazol-5-yl)-3-(4′-fluorobiphenyl-3-yl)-1-oxa-8-azaspiro[4.5]decane-8-carboxamide] | (+)
7 | 433 | 1220 | Cc1noc(NC(=O)N2CCC3(CC2)C[C@H](c2cccc(-c4ccc(Cl)cc4)c2)CO3)c1C [Example 61, (3R)-3-(4′-chlorobiphenyl-3-yl)-N-(3,4-dimethylisoxazol-5-yl)-1-oxa-8-azaspiro[4.5]decane-8-carboxamide] | (+)
8 | 2260 | 2920 | Cc1noc(NC(=O)N2CCC3(CC2)C[C@@H](c2cccc(-c4ccc(Cl)cc4)c2)CO3)c1C [Example 62, (3S)-3-(4′-chlorobiphenyl-3-yl)-N-(3,4-dimethylisoxazol-5-yl)-1-oxa-8-azaspiro[4.5]decane-8-carboxamide] | (+)
9 | 2160 | 2350 | Cc1noc(NC(=O)N2CCC3(CC2)C[C@@H](c2cccc(-c4ccc(OC(F)(F)F)cc4)c2)CO3)c1C [Example 63, (3S)—N-(3,4-dimethylisoxazol-5-yl)-3-[4′-(trifluoromethoxy)biphenyl-3-yl]-1-oxa-8-azaspiro[4.5]decane-8-carboxamide] | (+)
10 | 11200 | 4890 | Cn1nnnc1NC(=O)N1CCC2(CC1)C[C@H](c1cccc(Oc3ccc(Cl)cn3)c1)CO2 [Example 81, 3-{3-[(5-chloropyridin-2-yl)oxy]phenyl}-N-(1-methyl-1H-tetrazol-5-yl)-1-oxa-8-azaspiro[4.5]decane-8-carboxamide] | (+)
11 | 4110 | 15900 | Cn1nnnc1NC(=O)N1CCC2(CC1)C[C@@H](c1ccc(OCc3cccc(F)c3)cc1)CO2 [Example 87, (3S)-3-{4-[(3-fluorobenzyl)oxy]phenyl}-N-(1-methyl-1H-tetrazol-5-yl)-1-oxa-8-azaspiro[4.5]decane-8-carboxamide] | (+)
12 | 25000 | 32600 | Cn1nnnc1NC(=O)N1CCC2(CC1)C[C@H](c1ccc(OCc3ccc(F)c(F)c3)cc1)CO2 [Example 88, (3R)-3-{4-[(3,4-difluorobenzyl)oxy]phenyl}-N-(1-methyl-1H-tetrazol-5-yl)-1-oxa-8-azaspiro[4.5]decane-8-carboxamide] | (+)
13 | 9640 | 29800 | Cn1nnnc1NC(=O)N1CCC2(CC1)C[C@@H](c1ccc(OCc3ccc(F)c(F)c3)cc1)CO2 [Example 89, (3S)-3-{4-[(3,4-difluorobenzyl)oxy]phenyl}-N-(1-methyl-1H-tetrazol-5-yl)-1-oxa-8-azaspiro[4.5]decane-8-carboxamide] | (+)
14 | 22600 | 30800 | Cn1nnnc1NC(=O)N1CCC2(CC1)C[C@H](c1ccc(OCc3ccc(F)cc3)cc1)CO2 [Example 90, (3R)-3-{4-[(4-fluorobenzyl)oxy]phenyl}-N-(1-methyl-1H-tetrazol-5-yl)-1-oxa-8-azaspiro[4.5]decane-8-carboxamide] | (+)
15 | 7500 | 21200 | Cn1nnnc1NC(=O)N1CCC2(CC1)C[C@@H](c1ccc(OCc3ccc(F)cc3)cc1)CO2 [Example 91, (3S)-3-{4-[(4-fluorobenzyl)oxy]phenyl}-N-(1-methyl-1H-tetrazol-5-yl)-1-oxa-8-azaspiro[4.5]decane-8-carboxamide] | (+)
16 | 30300 | 21500 | Cn1nnnc1NC(=O)N1CCC2(CC1)C[C@H](c1ccc(OCc3ccc(C(F)(F)F)cn3)cc1)CO2 [Example 95, (3R)—N-(1-methyl-1H-tetrazol-5-yl)-3-(4-{[5-(trifluoromethyl)pyridin-2-yl]methoxy}phenyl)-1-oxa-8-azaspiro[4.5]decane-8-carboxamide] | (+)
17 | 2010 | 26300 | Cn1nnnc1NC(=O)N1CCC2(CC1)C[C@H](c1cccc(-c3ccc(F)cc3)c1)CO2 [Example 96, (3R)-3-(4′-fluorobiphenyl-3-yl)-N-(1-methyl-1H-tetrazol-5-yl)-1-oxa-8-azaspiro[4.5]decane-8-carboxamide] | (+)
18 | 1830 | 16900 | Cn1nnnc1NC(=O)N1CCC2(CC1)C[C@H](c1cccc(-c3ccc(OC(F)(F)F)cc3)c1)CO2 [Example 97, (3R)—N-(1-methyl-1H-tetrazol-5-yl)-3-[4′-(trifluoromethoxy)biphenyl-3-yl]-1-oxa-8-azaspiro[4.5]decane-8-carboxamide] | (+)
19 | 2690 | 9970 | Cn1nnnc1NC(=O)N1CCC2(CC1)C[C@H](c1cccc(-c3ccc(C(F)(F)F)cn3)c1)CO2 [Example 99, (3R)—N-(1-methyl-1H-tetrazol-5-yl)-3-{3-[5-(trifluoromethyl)pyridin-2-yl]phenyl}-1-oxa-8-azaspiro[4.5]decane-8-carboxamide] | (+)
